Laboratory results: PMC5074515 (PLoS ONE, 2016)
Values after ≈ are worked out from the molar mass of the structure shown. Read-outs that look alike come from different tables or passages of the source.

Tests used:
[1] = test system: Mtb H37Rv; experiment: TAACF Alamar blue assay against Mtb H37Rv (IC90); assay type: cell-based, M. tuberculosis; details: Mycobacterium tuberculosis
[2] = in vitro; details: African green monkey
[3] = molecular target: Mtb FtsZ (Mycobacterium tuberculosis, UniProt P9WN95); experiment: biochemical; assay type: biochemical; details: mean ± standard deviation, at least three times per assay; NA = not active up to 100 μM; read-out: Mtb FtsZ Polymerization IC50
Sequence of Mtb FtsZ (P9WN95 whole entry): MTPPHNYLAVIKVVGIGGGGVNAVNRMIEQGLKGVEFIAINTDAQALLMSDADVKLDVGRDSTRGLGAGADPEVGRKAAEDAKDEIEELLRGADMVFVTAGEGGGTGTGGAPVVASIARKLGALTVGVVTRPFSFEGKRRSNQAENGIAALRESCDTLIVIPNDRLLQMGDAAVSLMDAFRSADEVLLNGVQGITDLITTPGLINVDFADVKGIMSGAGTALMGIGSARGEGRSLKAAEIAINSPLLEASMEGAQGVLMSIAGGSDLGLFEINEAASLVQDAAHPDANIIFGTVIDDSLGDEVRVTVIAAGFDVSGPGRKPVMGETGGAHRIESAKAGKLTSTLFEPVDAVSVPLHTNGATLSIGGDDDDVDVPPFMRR

[4] = Cytotoxicity (CC50) in Vero cells, TAACF; details: African green monkey
[5] = test system: Vero cells; experiment: Cytotoxicity (CC50) in Vero cells, TAACF; details: CC50 in Vero cells to IC90 against Mtb H37Rv
[6] = Rapid PK mouse model (bioavailability); details: mice, oral gavage, 300 mg/kg
[7] = test system: Mtb H37Ra (ATCC 25177); experiment: In vitro screen versus Mtb H37Ra (Alamar blue microdilution broth assay, MIC99); assay type: cell-based, M. tuberculosis; details: Mycobacterium tuberculosis
Description: The initial screening set and selected other compounds were tested for their inhibitory activity against Mtb H37Ra (ATCC 25177) and MAC NJ211 strains. Screening was performed at 1.28 and 12.8 μg/mL in Middlebrook 7H9 broth supplemented with 0.2% glycerol and ADC enrichment using a colorimetric (Alamar blue) microdilution broth assay by reported methods.[15]

[8] = test system: tubulin; experiment: Tubulin polymerization assay; assay type: biochemical, human; details: for effect on human tubulin: at 100 μM
[9] = test system: MAC NJ211; experiment: In vitro screen versus MAC NJ211 (Alamar blue microdilution broth assay, MIC99); assay type: cell-based; details: lowest drug concentration that completely inhibited growth; for MIC99: read-out: MAC NJ211 MIC99
[10] = Acute toxicity mouse model; assay type: in vivo, mice; details: single dose of 300 mg/kg
[11] = test system: Mtb H37Rv; experiment: In vitro qHTS assay against Mtb H37Rv (IC90); assay type: cell-based, M. tuberculosis; details: Mycobacterium tuberculosis, H37RV; concentration that inhibits bacterial growth by 90%; read-out: Mtb H37Rv IC90
[12] = cited from earlier work
[13] = test system: M. tuberculosis 41 (Mtb 41) FtsZ reporter strain; assay type: cell-based
[14] = lowest drug concentration that completely inhibited growth, read-out: Mtb H37Ra MIC99
[15] = same MIC99 given in μM, read-out: Mtb H37Ra MIC99 (concentration in μM in parentheses)

`CC[n+]1c(/C=C/N(C)c2ccccc2)n(-c2ccccc2)c2ccc(-c3nc4ccccc4s3)cc21` [Compound 8, Zantrin Z2] gave an IC90 ([1]; read-out: Mtb H37Rv IC90) of 1.56 µg/mL, an IC90 ([1]; read-out: Mtb H37Rv IC90 (concentration in µM in parentheses)) of 3.2 µM and a CC50 [2] of 1.7 µg/mL. The IC50 [3] was 3.5 ± 0.3 µM, the CC50 [4] was 3.49 µM and the “Selectivity Index (CC50/IC90)” value [5] was 1.09. For the same molecule, the Bioavailability [6] was “no bioavailability and None”, the MIC ([7]; lowest drug concentration that completely inhibited growth) was 1 µg/mL and the IC50 ([8]; mean ± standard deviation, at least three times per assay, NA = not active up to 100 μM) was greater than 100 µM. For the same molecule, the MIC [9] was 1 µg/mL and the “ill effects to the mice” value [10] was “no ill effects”.

With `CSc1ccc(/C=C2/C(C)=C(CC(=O)NCCN(C)C)c3cc(F)ccc32)cc1` [Compound 18, (Z)-N-(2-(dimethylamino)ethyl)-2-(5-fluoro-2-methyl-1-(4-(methylthio)benzylidene)-1H-inden-3-yl)acetamide] the IC50 [3] was 39.4 ± 4.9 µM, the IC90 [11] was 7.29 ± 0.23 µM and the MIC99 [7, 14] was 8 µg/mL. The MIC99 [7, 15] was 19.5 µM, the “effect on human tubulin” value [8] was “no effect” and the “effect on human tubulin” value ([8]; listed as SSA) was “no inhibition”. The “tolerated dose in mice” value ([12]; over 17 days) was “up to 300 mg/kg” and the MIC99 [9] was 16 µg/mL (≈ 39 µM).

In the case of `COc1cc(/C=C2\C=C(CC(=O)NCCN3CCCC3)c3cc(F)ccc32)cc(OC)c1OC` [Compound 63, (E)-2-(5-fluoro-1-(3,4,5-trimethoxybenzylidene)-1H-inden-3-yl)-N-(2-(pyrrolidin-1-yl)ethyl)acetamide], the IC50 [3] is reported as 37.6 ± 5.7 µM, the IC90 [11] is reported as 25.5 ± 0.33 µM and the MIC99 [7, 14] is reported as 32 µg/mL. The MIC99 [7, 15] was 68.5 µM, the MIC99 [9] was greater than 64 µg/mL and the “FtsZ ring assembly in Mtb 41” value [13] was “inhibit FtsZ ring assembly”. The “growth of Mtb 41” value [13] was “significant growth inhibition” and the “bacterial cell length of Mtb 41” value ([13]; 75 μM, brightfield microscopy) was “clear increase in bacterial cell length”.

In the case of `CSc1ccc(/C=C2/C(C)=C(CC(=O)O)c3cc(F)ccc32)cc1` [Sulindac sulfide, reference compound], the “tolerated dose in mice” value ([12]; over 20 days) is listed as “up to 50 mg/kg”.
